Reference: patent US5741785A, “Heterocyclic compounds, their preparation and use” (Novo Nordisk A/S, priority 1994, dated 1998)
pIC50: −log10 of the molar value.

Assays:
AMPA type receptors = experiment: 3H-AMPA binding (Test 1), rat cerebral cortical membrane homogenate; settings: 5 nM 3H-AMPA, 0° C., 30 min, pH 7.1, Hill analysis; read-out: IC50 (50% displacement of the specific binding of 3H-AMPA), TEST 1
Description: AMPA receptor binding may be studied by using ^3 H-AMPA as radioligand.
The pharmacological properties of the compounds of the present invention can be illustrated by determining their capability for displacing radioactively labelled 2-amino-3-hydroxy-5-methyl-4-isoxazolepropionic acid (AMPA) from the AMPA type receptors.
The displacement activity of the compounds may be shown by determining the IC50 value which represents the concentration (μM) which causes a displacement of 50% of the specific binding of ^3 H-AMPA.
^3 H-AMPA binding (Test 1)
500/μl of thawed rat cerebral cortical membrane homogenate in Tris-HCl (30 mM), CaCl2 (2.5 mM) and KSCN (100 mM) pH 7.1 were incubated at 0° C. for 30 min. with 25 μl ^3 H-AMPA (5 nM final concentration) and the test compound and buffer. Nonspecific binding was determined by incubation with L-glutamic acid (600/μM final concentration). The binding reaction was terminated by adding 5 ml of ice-cold buffer followed by filtration through Whatman GF/C glass fibre filters and 2×5 ml wash with ice-cold buffer. Bound radioactivity was measured by scintillation counting. IC50 was determined by Hill analysis of at least four concentrations of test compound.

[1] = test system: quisqualic acid stimulated spreading depression in chicken retina; experiment: Spreading depression (Test 2), quisqualic acid stimulated, chicken retina; format: cell-based; settings: Gallus gallus, quisqualate 1 μg/ml, 15 min preincubation, 26° C., read-out: IC50 (50% maximal inhibition of quisqualic acid stimulated spreading depression), TEST 2
Description: The influence of glutamic acid analogues on secondary effects of glutamate receptor interactions may be studied in vitro by using the phenomenon of spreading depression in chicken retina. Such experiments will provide information as to the efficacies (agonist/antagonist) of the test substances. This is in contrast to binding studies, which only provide information on the affinities of the compounds for the receptor.
The pharmacological properties of the compounds of the present invention can be illustrated by determining their capability for displacing radioactively labelled 2-amino-3-hydroxy-5-methyl-4-isoxazolepropionic acid (AMPA) from the AMPA type receptors. […]
The eyes were initially incubated in normal P.S.S. for 15-30 min. and then transferred to P.S.S. containing quisqualate (1 μg/ml). In this "stimulating solution" S.D.s start spontaneously usually from the edge of the retina, and can be easily observed by eye, The time taken for an S.D. to start in each eye was measured.
After a further 15 min. of incubation in normal P.S.S. the eyes were transferred to normal P.S.S, containing the test compound and incubated for 15 min. […] The time taken for an S.D. to start in each eye was measured again. The eyes were then placed back in normal P.S.S. and after 15 min. the time taken for S.D. to start was measured again, in order to assess the degree of recovery from any drug effects. […]

AMPA receptor = settings: reported in J. Med. Chem., 35, 3319-3324, 1992; cited from earlier work

pIC50 (AMPA type receptors)	pIC50 [1]	Structure (SMILES)	affinity for the AMPA receptor (AMPA receptor)
6.35	5.96	Cc1c(C(=O)O)nc2c(=O)[nH]c3cc(C(F)(F)F)ccc3n12 [Example 2, 2-Carboxy-1-methyl-7-trifluoromethylimidazo[1,2-a]quinoxalin-4(5H)-one]	–
–	–	O=c1[nH]c2cc(Cl)c(Cl)cc2n2ccnc12 [7,8-dichloro-imidazo[1,2-a]quinoxaline-4(5H)-one]	reasonable affinity
